Reference: patent US8426420B2, “Heterocyclic pyrazole-carboxamidesas P2Y12 antagonists” (Sanofi, priority 2007, dated 2013)
pIC50: −log10 of the molar value.

Assays:
human P2Y12 receptor = human P2Y12 receptor (Homo sapiens, UniProt Q9H244); experiment: Human P2Y12 recombinant cell membrane binding assay with 33P 2MeS-ADP; conditions: competition against 33P 2MeS-ADP, membranes of CHO cells with recombinant human P2Y12 receptor
Description: The ability of the compounds of the formula Ito inhibit the P2Y12 receptor can be assessed by determining the concentration of the compound of the formula I that binds to the human P2Y12 Recombinant Cell Membrane Binding Assay with 33P 2MeS-ADP.
Human P2Y12 Recombinant Cell Membrane Binding Assay
The ability of a test compound to bind to the P2Y12 receptor was evaluated in a recombinant cell membrane binding assay. In this competitive binding assay, the test compound competed against a radiolabeled agonist for binding to the P2Y12 receptor, expressed on the cell membrane. Inhibition of binding of the labeled material was measured and correlated to the amount and potency of the test compound. This binding assay is a modification of the procedure described by Takasaki, J. et. al, Mol. Pharmacol., 2001, Vol. 60, pg. 432. A membrane preparation was prepared from Chinese Hamster Ovary (CHO) cells with recombinant expression of the human P2Y12 receptor according to standard procedures as a source of P2Y12.
To a 96-well microtiterplate the following were added: a) 24 μl of assay buffer (10 mM HEPES, 138 mM NaCl, […] KCl, 12 mM NaHCO3, 1 mM EDTA-Na, 0.1% BSA, pH 7.4) b) 1 μL compound in DMSO c) 50 μL P2Y12 CHO membrane (20 μg/ml) and after 15 min at RT d) 25 μL of 1.61 nM 33P 2MeS-ADP (Perkin Elmer NEN custom synthesis, specific activity ˜2100 Ci/mmol) made in assay buffer.
After 20 min incubation at RT samples were transferred to 96-well microtiter filterplates (Millipore HTS GF/B), pre-wetted for 20 min with 300 μL of stop buffer (10 mM HEPES, 138 mM NaCl pH 7.4) and then filtered through completely with a Millipore plate vacuum. Next, wells were washed four times with 400 μl/well of stop buffer on a plate vacuum. The plate was disassembled and allowed to air dry overnight with the filter side up over night. The filter plates were snapped into adapter plates and 0.1 mL of Microscint 20 Scintillation Fluid (Perkin Elmer #6013621) was added to each well. The top of the filterplate was sealed with plastic plate covers. The sealed filterplate were incubated 2 hours at RT. A Microbeta Scintillation Counter was used to measure counts.
Compounds were diluted as 10 mM DMSO stocks and tested in a four-point, five-fold dilution series run in triplicate beginning at 10 μM, final concentration. Data were analyzed using a four-parameter curve fit with a fixed minimum and maximum experimentally defined as the average positive and negative controls on each plate.

[1] = test system: human platelet rich plasma; experiment: Inhibition of human platelet aggregation, 96-well assay; type: cell-based; conditions: Homo sapiens, Platelet, 20 min
Procedure, shortened: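 ADP-induced aggregation read as 650 nm absorbance every minute for 20 min at 37 °C, with shaking between reads. PRP (~3×E8 platelets/ml, diluted with PPP, ACD-A blood from healthy volunteers) was exposed to compound for 5 min before adding a 40 μM ADP stock (15 μl into 150 μl).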

Sequence of human P2Y12 receptor (Q9H244 whole entry): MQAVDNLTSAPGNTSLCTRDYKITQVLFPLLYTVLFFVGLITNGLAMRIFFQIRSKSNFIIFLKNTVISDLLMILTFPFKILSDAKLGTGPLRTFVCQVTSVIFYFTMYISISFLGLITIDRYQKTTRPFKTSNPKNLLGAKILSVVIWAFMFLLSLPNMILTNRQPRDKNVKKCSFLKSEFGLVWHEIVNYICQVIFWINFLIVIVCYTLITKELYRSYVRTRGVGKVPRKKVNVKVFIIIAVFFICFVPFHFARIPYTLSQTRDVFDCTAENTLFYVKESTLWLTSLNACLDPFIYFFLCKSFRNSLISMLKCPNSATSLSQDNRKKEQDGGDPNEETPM

Row | Compound | pIC50 (human P2Y12 receptor) | pIC50 [1]
1 | COC(=O)CC[C@H](NC(=O)c1cc(OCC(=O)N2CCC[C@H]2C(=O)NC2CCC2)n(-c2ccccc2)n1)C(=O)N1CCN(C(=O)OC2CCC2)CC1 [Example 189, 4-[(S)-2-({5-[2-((S)-2-Cyclobutylcarbamoyl-pyrrolidin-1-yl)-2-oxo-ethoxy]-1-phenyl-1H-pyrazole-3-carbonyl}-amino)-4-methoxycarbonyl-butyryl]-piperazine-1-carboxylic acid cyclobutyl ester] | 7.46 | 6.46
2 | CCOC(=O)N1CCN(C(=O)[C@H](CCC(=O)O)NC(=O)c2cc(OCC(=O)N3CCC[C@H]3C(=O)NCC(F)F)n(-c3cccc(F)c3)n2)CC1 [Example 76, 4-((S)-4-Carboxy-2-{[5-[2-((S)-2-(2,2-difluoroethylcarbamoyl)-pyrrolidin-1-yl)-2-oxo-ethoxy]-1-(3-fluoro-phenyl)-1H-pyrazole-3-carbonyl]-amino}-butyryl)-piperazine-1-carboxylic acid ethyl ester] | 7.55 | 6.77
3 | CCOC(=O)N1CCN(C(=O)[C@H](CCC(=O)O)NC(=O)c2cc(OCC(=O)N3CCC[C@H]3C(=O)NC3CCC3)n(-c3ccccc3)n2)[C@H](C)C1 [Example 150, (R)-4-[(S)-4-Carboxy-2-({5-[2-((S)-2-cyclobutylcarbamoyl-pyrrolidin-1-yl)-2-oxo-ethoxy]-1-phenyl-1H-pyrazole-3-carbonyl}-amino)-butyryl]-3-methyl-piperazine-1-carboxylic acid ethyl ester] | 7.70 | 7.15
4 | O=C(O)CC[C@H](NC(=O)c1cc(OCC(=O)N2CCC[C@H]2C(=O)NC2CCC2)n(-c2ccccc2)n1)C(=O)N1CCN(C(=O)OCc2ccccc2)CC1 [Example 159, 4-[(S)-4-Carboxy-2-({5-[2-((S)-2-cyclobutylcarbamoyl-pyrrolidin-1-yl)-2-oxo-ethoxy]-1-phenyl-1H-pyrazole-3-carbonyl}-amino)-butyryl]-piperazine-1-carboxylic acid benzyl ester] | 7.82 | 6.92
5 | COc1cccc(N2CCN(C(=O)[C@H](CCC(=O)O)NC(=O)c3cc(OCC(=O)N4CCC[C@H]4C(=O)NC4CCC4)n(-c4ccccc4)n3)CC2)c1 [Example 101, (S)-4-({5-[2-((S)-2-Cyclobutylcarbamoyl-pyrrolidin-1-yl)-2-oxo-ethoxy]-1-phenyl-1H-pyrazole-3-carbonyl}-amino)-5-[4-(3-methoxy-phenyl)-piperazin-1-yl]-5-oxo-pentanoic acid] | 7.11 | 6.10
6 | CCOC(=O)N1CCN(C(=O)[C@H](CCC(=O)OC2CCCC2)NC(=O)c2cc(OCC(=O)N3CCC[C@H]3C(=O)NC3CCC3)n(-c3ccccc3)n2)CC1 [Example 130, 4-[(S)-2-({5-[2-((S)-2-Cyclobutylcarbamoyl-pyrrolidin-1-yl)-2-oxo-ethoxy]-1-phenyl-1H-pyrazole-3-carbonyl}-amino)-4-cyclopentyloxycarbonyl-butyryl]-piperazine-1-carboxylic acid ethyl ester] | 7.23 | 
7 | CCCCOC(=O)NC1CCN(C(=O)[C@H](CCC(=O)O)NC(=O)c2cc(OCC(=O)N3CCC[C@H]3C(=O)NC3CCC3)n(-c3ccccc3)n2)CC1 [Example 102, (S)-5-(4-Butoxycarbonylamino-piperidin-1-yl)-4-({5-[2-((S)-2-cyclobutylcarbamoyl-pyrrolidin-1-yl)-2-oxo-ethoxy]-1-phenyl-1H-pyrazole-3-carbonyl}-amino)-5-oxo-pentanoic acid] | 7.24 | 
8 | CCOC(=O)N1CCN(C(=O)[C@H](CCCCOC(C)=O)NC(=O)c2cc(OCC(=O)N3CCC[C@H]3C(=O)NC3CCC3)n(-c3ccccc3)n2)CC1 [Example 237, 4-[(S)-6-Acetoxy-2-({5-[2-((S)-2-cyclobutylcarbamoyl-pyrrolidin-1-yl)-2-oxo-ethoxy]-1-phenyl-1H-pyrazole-3-carbonyl}-amino)-hexanoyl]-piperazine-1-carboxylic acid ethyl ester] | 7.52 | 
9 | CCOC(=O)N1CCN(C(=O)[C@H](CCC(=O)O)NC(=O)c2cc(OCC(=O)N3CCC[C@H]3C(=O)NCC(F)(F)F)n(-c3ccc(F)c(F)c3)n2)CC1 [Example 85, 4-((S)-4-Carboxy-2-{[5-[2-((S)-2-(2,2,2-trifluoroethylcarbamoyl)-pyrrolidin-1-yl)-2-oxo-ethoxy]-1-(3,4-difluoro-phenyl)-1H-pyrazole-3-carbonyl]-amino}-butyryl)-piperazine-1-carboxylic acid ethyl ester] | 6.81 | 
10 | CCCCOC(=O)N1CCN(C(=O)[C@@H](NC(=O)c2cc(OCC(=O)N3CCC[C@H]3C(=O)NC3CCC3)n(-c3ccccc3)n2)[C@H](C)CC)CC1 [Example 229, 4-[(2S,3R)-2-({5-[2-((S)-2-Cyclobutylcarbamoyl-pyrrolidin-1-yl)-2-oxo-ethoxy]-1-phenyl-1H-pyrazole-3-carbonyl}-amino)-3-methyl-pentanoyl]-piperazine-1-carboxylic acid butyl ester] | 7.66 | 
11 | CCCCOC(=O)N1CCN(C(=O)C(NC(=O)c2cc(OCC(=O)N3CCC[C@H]3C(=O)NC3CCC3)n(-c3ccccc3)n2)C(C)F)CC1 (stereo partly drawn) [Example 176, 4-[2-({5-[2-((S)-2-Cyclobutylcarbamoyl-pyrrolidin-1-yl)-2-oxo-ethoxy]-1-phenyl-1H-pyrazole-3-carbonyl}-amino)-3-fluoro-butyryl]-piperazine-1-carboxylic acid butyl ester] | 7.35 | 
12 | CCCCOC(=O)N1CCN(C(=O)[C@H](CCCOC(=O)C(C)C)NC(=O)c2cc(OCC(=O)N3CCC[C@H]3C(=O)NC3CCC3)n(-c3ccccc3)n2)CC1 [Example 212, 4-[(S)-2-({5-[2-((S)-2-Cyclobutylcarbamoyl-pyrrolidin-1-yl)-2-oxo-ethoxy]-1-phenyl-1H-pyrazole-3-carbonyl}-amino)-5-isobutyryloxy-pentanoyl]-piperazine-1-carboxylic acid butyl ester] | 7.77 | 
13 | CCOC(=O)N1CCN(C(=O)[C@H](CNC(=O)OC)NC(=O)c2cc(OCC(=O)N3CCC[C@H]3C(=O)NC3CCC3)n(-c3ccccc3)n2)CC1 [Example 89, 4-[(S)-2-({5-[2-((S)-2-Cyclobutylcarbamoyl-pyrrolidin-1-yl)-2-oxo-ethoxy]-1-phenyl-1H-pyrazole-3-carbonyl}-amino)-3-methoxycarbonylamino-propionyl]-piperazine-1-carboxylic acid ethyl ester] | 6.95 | 
14 | CCOC(=O)CC[C@H](NC(=O)c1cc(OCC(=O)N2CCC[C@H]2C(=O)NC2CCC2)n(-c2cccc(F)c2)n1)C(=O)N1CCN(C(=O)OCC)CC1 [Example 140, 4-((S)-2-{[5-[2-((S)-2-Cyclobutylcarbamoyl-pyrrolidin-1-yl)-2-oxo-ethoxy]-1-(3-fluoro-phenyl)-1H-pyrazole-3-carbonyl]-amino}-4-ethoxyoxycarbonyl-butyryl)-piperazine-1-carboxylic acid ethyl ester] | 6.76 | 
15 | CCOC(=O)N1CCN(C(=O)[C@H](CCCCOCc2ccccc2)NC(=O)c2cc(OCC(=O)N3CCC[C@H]3C(=O)NC3CCC3)n(-c3ccccc3)n2)CC1 [Example 195, 4-[(S)-6-Benzyloxy-2-({5-[2-((S)-2-cyclobutylcarbamoyl-pyrrolidin-1-yl)-2-oxo-ethoxy]-1-phenyl-1H-pyrazole-3-carbonyl}-amino)-hexanoyl]-piperazine-1-carboxylic acid ethyl ester] | 7.06 | 
16 | CCOC(=O)N1CCN(C(=O)[C@H](CCNC(=O)C(C)C)NC(=O)c2cc(OCC(=O)N3CCC[C@H]3C(=O)NC3CCC3)n(-c3ccccc3)n2)CC1 [Example 100, 4-[(S)-2-({5-[2-((S)-2-Cyclobutylcarbamoyl-pyrrolidin-1-yl)-2-oxo-ethoxy]-1-phenyl-1H-pyrazole-3-carbonyl}-amino)-4-isobutyrylamino-butyryl]-piperazine-1-carboxylic acid ethyl ester] | 6.71 | 
17 | CCCOC(=O)N1CCN(C(=O)C(NC(=O)c2cc(OCC(=O)N3CCC[C@H]3C(=O)NC3CCC3)n(-c3ccccc3)n2)C(C)F)CC1 (stereo partly drawn) [Example 175, 4-[2-({5-[2-((S)-2-Cyclobutylcarbamoyl-pyrrolidin-1-yl)-2-oxo-ethoxy]-1-phenyl-1H-pyrazole-3-carbonyl}-amino)-3-fluoro-butyryl]-piperazine-1-carboxylic acid propyl ester] | 6.75 | 
